Laboratory results published in paper PMC11434796, “An Innovative Bio-Vehicle for Resveratrol and Tocopherol Based on Quinoa 11S Globulin—Nanocomplex Design and Characterization” (Pharmaceutics, 2024).

Target: T1, quinoa 11S globulin (11S; chenopodin)
T1 construct: gene 11S globulin A; native, from defatted quinoa seed flour (seed origin Peru); alkaline extraction, pH 4.5 precipitation, size-exclusion FPLC; acidic (30-35 kDa) and basic (17-20 kDa) subunits disulfide-linked, about 55 kDa; isoform mixture not resolved; docking used amaranth 3qac as homologue
Test: isothermal titration calorimetry
Assay type: binding, Chenopodium quinoa
Details: distilled water pH 9, 25 °C, n 0.91
Source text: isothermal titration calorimetry on quinoa 11S globulin (11S; chenopodin)

Kd (protein 36.4 µM): 48.2 ± 1 µM | Ka (M^-1) (same titration as the Kd): (2.1 ± 0.3) × 10^4
SMILES: Oc1ccc(/C=C/c2cc(O)cc(O)c2)cc1 [RSV, 3,5,4′-trihydroxystilbene]
